Laboratory results: a melting point compilation (Tetko et al.; mined from patent text by program, amines drawn as free bases though some values may be those of a salt)

SMILES	melting point [°C]
Nc1ccc(CCCc2ccc(Nc3ccccc3C(=O)O)cc2)cc1	110 to 112
Nc1nc(Oc2ccc(C(F)(F)F)cc2Cl)ccc1[N+](=O)[O-]	80 to 84
CCOc1cc2c(Nc3ccc(OC)cc3)c(C(=O)O)cnc2nc1C	259 to 263
Cc1coc(C)c1N(C)c1cc(Br)cc2c1nc(C)n2C	207 to 208
Cc1csc(-c2nc(COc3ccc(CCCCn4ccnc4)cc3)co2)c1	77 to 78
COC(=O)Cc1sc(Sc2cc(C(=O)OC)nc(SC)n2)nc1C	131 to 133
CC(=O)Nc1nc2c(Oc3cc(-c4ccc(C(F)(F)F)cc4Cl)ncn3)cccc2s1	263 to 264
Nc1ncc(Cc2csc3ccccc23)c(N)n1	220 to 222
Cc1cc(C(Cl)=NNc2ccccc2)ccc1[N+](=O)[O-]	146 to 148
Cc1nc2cccc(N)c2c(=O)n1[C@@]1(C)CCC(=O)NC1=O	295 to 297
CCOC(=O)C1=Cc2cc(-c3ccc(C)cc3)ccc2SC1	87
CS(=O)(=O)c1ccc(-c2cc(C#N)sc2-c2ccc(F)cc2)cc1	139 to 140
NS(=O)(=O)c1cc2c(cc1Cl)NCN(CCO)S2(=O)=O	199 to 203
CCOc1cc(Cc2cnc(N)nc2N)cc2c1OC(C)(C)C=C2c1ccc(OC)c(OC)c1	191 to 192
COCC(=O)[C@H](Cc1ccccc1)NC(=O)[C@H](CC(C)C)NC(=O)OCc1ccccc1	87 to 92
Cc1nc(C(=O)NCCN2CCOCC2)cc(-c2cccc([N+](=O)[O-])c2)c1C(C)O (stereo not given)	166 to 167
O=C(O)c1ccc(Cl)cc1NC(=O)C(CS)Cc1ccccc1 (stereo not given)	134 to 136
Cc1cccc(-c2[nH]c(C(C)C)nc2-c2cccc(-c3ccccn3)c2)n1	97 to 100
NS(=O)(=O)c1cccc(S(=O)(=O)NC2CC2)c1	170 to 174
O=c1cc(-c2ccccc2)oc2ncccc12	103 to 105
CN1CCN(N(c2ccccc2)c2nc3c(-c4c(F)cccc4F)n[nH]c3s2)CC1	208 to 210
CCOC(=O)CC1Cc2ccc(O)cc2Cc2ccccc21 (stereo not given)	110 to 112
CCN(CC)C(=O)c1ccc(-c2cc3c(Nc4cccc(Cl)c4)ncnc3[nH]2)cc1	> 250
CCC(CO)NCC(O)COc1ccccc1C#N (stereo not given)	106 to 108

SMILES	melting point [°C]
COc1nc(C)c(C(C)O)cc1NC(=O)N1CCN(c2cccc(C)c2C)CC1 (stereo not given)	100 to 102
CCOC(=O)c1c(C(F)(F)F)nc(C(F)(F)F)c(C(=O)OC)c1N=[N+]=[N-]	46 to 47
O=C(O)C=C(Oc1ccc(OC(F)(F)F)cc1)C(=O)O	208 to 210
CSC(C)(C(=O)O)c1ccc2oc(Cc3nc(-c4ccccc4)oc3C)cc2c1 (stereo not given)	178 to 179
CC(=O)OC1CSC(Oc2ccc(C)nc2)C(OC(C)=O)C1OC(C)=O (stereo not given)	130
Cc1nc(NC(=O)c2cnn3c(C(F)F)cc(-c4ccc(C(F)(F)F)cc4)nc23)sc1S(=O)(=O)N1CCN(C)CC1	269
N#CC(Cc1ccccc1Cl)C(=O)O (stereo not given)	132 to 134
O=C(NCCCN1CCN(c2ccccc2OCC(F)(F)F)CC1)c1csc2c(=O)cc(-c3ccccc3)oc12	152 to 158
CC1(C)OCC[C@@H]2[C@@H](NC(=O)OCc3ccccc3)C(=O)N21 (relative stereo)	129 to 131
COC(=O)C(=C(/C)c1cc(OC)cc(OC)c1)/C(=C\c1cc(OC)cc(OC)c1)C(=O)O	137 to 140
O=C1C2=C(CCCC2)C(=O)C1=C1C=CNC=C1	258 to 261
O=[N+]([O-])c1ccc(-c2cc3c(Oc4ccc(Cl)cc4)cncc3s2)cc1	193 to 195
CC(C)Oc1cc(-n2c(=O)[nH]c(CF)c(F)c2=O)c(F)cc1Cl	152 to 154
COC(=O)CC(C)(C)C(=O)c1ccc2c(c1)CC(N1C(=O)c3ccccc3C1=O)C2 (stereo not given)	115 to 117
CC(C)COc1ccc(C(=O)N/C(=C\c2ccc(OCC(F)F)cc2)C(=O)NCCO)cc1	150 to 151
COc1nc(Cl)cnc1NC(=O)OCC(C)C	90 to 91
Cc1ccccc1-c1c(NC(=O)Nc2ccc(F)cc2F)cnc2cc3c(cc12)CCC3	252 to 254
COc1ccc2cc(CNCCNC(=O)C34CC5CC(CC(C5)C3)C4)oc2c1OC	206 to 207
Cc1ccc(CNC(=O)c2ccc(F)cc2OCC(=O)O)cc1[N+](=O)[O-]	159 to 160
COc1ccc(CCN2CCc3cc(O)c(OC)cc3C2)cc1	170 to 171
CCOC(=O)c1ccc(C2=NOC(c3cc(Cl)cc(Cl)c3)(C(F)(F)F)C2)cc1[N+](=O)[O-] (stereo not given)	160 to 162
CN=C1SC(=NOC(=O)NC)C(C)(C)S1	68 to 70
O=C(O)Cc1c(C(=O)c2ccc(OC(F)(F)F)cc2)[nH]c2cc(Cl)ccc12	166 to 168
CCN(CC)CCNC(=O)c1ccc([N+](=O)[O-])cc1OC	59.3

SMILES	melting point [°C]
NC(=O)CCn1c(=S)sc2ccccc21	226 to 227
CC12CCC3C(CCC4C(=[N+]=[N-])C(=O)CCC43C)C1CCC2O (stereo not given)	171
COc1cc2c(cc1O)C(C)(C)CC2	43.5 to 44.5
CCOC(=O)c1c(Cl)c2ccccc2[nH]c1=O	186
CC1(C)CC(=O)c2cc[nH]c2C1	177 to 178
COC(=O)C1=C(C)NC(C)=C(C(=O)OCCN2CCC(c3ccccc3)CC2)C1c1cccc([N+](=O)[O-])c1 (stereo not given)	159 to 160
O=C(O)Cc1cccc2c(-c3ccc(Cl)cc3)onc12	200 to 202
CC(C)c1nc(CCOC2=CCCCCCCCC2)n(C)c1Sc1cc(Cl)cc(Cl)c1	94 to 96
O=C(c1ccc(Cl)c(Cl)c1)N1CCCC(c2cccs2)=N1	124 to 125
CCOC(=O)C=C(C)Nc1ccc(F)c(OCc2ccccc2)c1	79 to 80
Cn1nc(-c2c(Cl)cccc2Cl)nc1-c1ccc(Br)s1	130 to 132
CC(=O)NC(=O)C(=O)C(C)(C)C	82 to 84
COC(=O)CCc1cnoc1-c1ccc2c(c1)OCO2	84 to 85
CC(C)(C)OC(=O)NCc1ccc(OCCC2Oc3ccccc3N(Cc3ccc(Cl)cc3)C2=O)cc1 (stereo not given)	121 to 122
CC(C)Oc1ccc(CCCOc2nn(Cc3ccccc3)cc2CC(=O)O)c(OCc2ccc(Cl)cc2Cl)c1	103 to 104
c1ccc(COc2ccc(CN(c3ccccc3)c3ccccc3)cc2)cc1	104 to 109
O=C1c2ccccc2C(=O)N1CC(=O)N1c2ccccc2N(Cc2cccc([N+](=O)[O-])c2)C(=O)[C@H]2CCC[C@H]21 (relative stereo)	250 to 252
CCOC(=O)C(=CC=C(SC)C(=O)c1ccc(O)c(O)c1)N(C)C	144
ON=Cc1ccc(OCc2coc(-c3ccccc3)n2)cc1	184 to 186
C[C@H]1[C@H](c2ccccc2)OC(c2cccc(Br)c2)N1C (stereo not given in full)	73 to 75
CCC1(O)CC(=O)OCc2c1cc1n(c2=O)Cc2c-1nc1cc(F)ccc1c2-c1ccccc1 (stereo not given)	> 250
Oc1ccc2c(c1)C(c1ccc(OCCN3CCCCC3)cc1)c1c-2ccc2ccccc12 (stereo not given)	180 to 181
